Reference: patent EP1144368B1, “ACETYLENIC ALPHA-AMINO ACID-BASED SULFONAMIDE HYDROXAMIC ACID TACE INHIBITORS” (priority 1999, dated 2000)
Where a name gives a salt, the structure may show the parent alone. Read-outs that look alike come from different tables or passages of the source.

System: THP-1 cells
Experiment: THP-1 Soluble Protein Assay (LPS-stimulated; ELISA of TNF-a, TNF-R p75/80, TNF-R p55/60, IL-8)
Assay type: cell-based, human
Conditions: Homo sapiens
[1] = THP-1, read-out: THP % inhibition @ 3 µM, 3 µM
[2] = THP-1, 3 µM, read-out: THP % Inhibition @ 3µM

Protocol: Each vial of cells are cultured for about two weeks prior to being used for an assay and then are used for only 4 to 6 weeks to screen compounds.
Plates are placed into an incubator set at 5% CO2 and at 37° C. After 4 hours of incubation, 300 ml/well of tissue culture supernatant (TCS) is removed for use in an TNF-a ELISA.
Percent change in each soluble protein evaluated from the "vehicle positive control" was calculated for each compound concentration with the following formula: % Change =(pg/ml (compound) - pg/ml (veh pos control))/(pg/ml (veh pos control) - pg/ml (veh neg control))x 100 [formula]
For the soluble protein (TNF-a, p75/80, p55/60, IL-8) studies under stimulated conditions, the mean pg/ml of duplicate wells were determined and the results expressed as percent change from "vehicle positive control".

SMILES	inhibition at 3 µM [1]	inhibition at 3 µM [2]
CC#CCOc1ccc(S(=O)(=O)N(C)[C@H](CSC)C(=O)NO)cc1 [Example 154]	90%	–
CC#CCOc1ccc(S(=O)(=O)NC(C(=O)NO)c2ccc(OCCOCCOCCOC)cc2)cc1 (stereo not shown) [Example 209, 2-({[4-(2-Butynyloxy)phenyl]sulfonyl}amino)-N-hydroxy-2-(4-{2-[2-(2-methoxyethoxy)ethoxy]ethoxy}phenyl)acetamide]	75%	–
CC#CCOc1ccc(S(=O)(=O)N2Cc3ccccc3CC2C(=O)NO)cc1 (stereo not shown) [Example 41, 2-(4-But-2-ynyloxy-benzenesulfonyl)-1,2,3,4-tetrahydro-isoquinoline-3-carboxylic acid hydroxyamide]	93%	–
CC#CCOc1ccc(S(=O)(=O)N(C)C(C(=O)NO)C(C)(C)SCCC)cc1 (stereo not shown) [Example 151, 2-[(4-But-2-ynyloxy-benenesulfonyl)-methyl-amino]-N-hydroxy-3-methyl-3-propylsulfanyl-butyramide]	82%	–
CC#CCOc1ccc(S(=O)(=O)NC(C(=O)NO)c2ccc(OCCN3CCCC3)cc2)cc1 (stereo not shown) [Example 205, 2-({[4-(2-Butynyloxy)phenyl]sulfonyl}amino)-N-hydroxy-2-{4-[2-(1-pyrrolidinyl)ethoxy]phenyl}acetamide]	66%	–
C#CC#CCOc1ccc(S(=O)(=O)N2CCSC(C)(C)[C@@H]2C(=O)NO)cc1 [Example 263, (3S)-N-Hydroxy-2,2-dimethyl-4-{[4-(2,4-pentadiynyloxy)phenyl]sulfonyl}-3-thiomorpholine carboxamide]	88%	–
CC#CCOc1ccc(S(=O)(=O)N2CCCS(=O)(=O)C[C@@H]2C(=O)NO)cc1 [Example 175]	–	83%
CC#CCOc1ccc(S(=O)(=O)N2CCN(C(C)=O)CC2C(=O)NO)cc1 (stereo not shown) [Example 224, 4-Acetyl-1-(4-but-2-ynyloxy-benzenesulfonyl)-piperazine-2-carboxylic acid hydroxyamide]	81%	–
CC#CCOc1ccc(S(=O)(=O)N2CCCSC(C)(C)[C@@H]2C(=O)NO)cc1 [Example 173]	–	80%
CC#CCOc1ccc(S(=O)(=O)N2C[C@H](CC(=O)NO)SC(C)(C)[C@@H]2C(=O)NO)cc1 [Example 279, (3S,6S)-4-{[4-(2-Butynyloxy)phenyl]sulfonyl}-N-hydroxy-6-[2-(hydroxyamino)-2-oxoethyl]-2,2-dimethyl-3-thiomorpholinecarboxamide]	–	87%
CC#CCOc1ccc(S(=O)(=O)N2CCCSC[C@@H]2C(=O)NO)cc1 [Example 174]	–	80%
CC#CCOc1ccc(S(=O)(=O)N2CCN(C(=O)OC(C)(C)C)CC2C(=O)NO)cc1 (stereo not shown) [Example 58, 4-(4-But-2-ynyloxy-benzenesulfonyl)-3-hydroxycarbamoyl-piperazine-1-carboxylic acid tert-butyl ester]	79%	–
CC#CCOc1ccc(S(=O)(=O)N(C)C(C(=O)NO)C(C)(C)SCc2ccccc2)cc1 (stereo not shown) [Example 153, 2-[(4-But-2-ynyloxy-benenesulfonyl)-methyl-amino]-N-hydroxy-3-methyl-3-benzylsulfanyl-butyramide]	46%	–
CC#CCOc1ccc(S(=O)(=O)N2CCN(C)CC2C(=O)NO)cc1 (stereo not shown) [Example 56, 1-(4-But-2-ynyloxy-benzenesulfonyl)-4-methyl-piperazine-2-carboxylic acid hydroxyamide hydrochloride]	32%	–
CC#CCOc1ccc(S(=O)(=O)N(Cc2ccc(OCCN3CCCCC3)cc2)C(C(=O)NO)C2CCCCC2)cc1 (stereo not shown) [Example 117, 2-{(4-But-2-ynyloxy-benzenesulfonyl)-[4-(2-piperidin-1-yl-ethoxy)-benzyl]-amino}-2-cyclohexyl-N-hydroxy-acetamide]	88%	–
CC#CCOc1ccc(S(=O)(=O)N2CCN(C(=O)CN)CC2C(=O)NO)cc1 (stereo not shown) [Example 230, 4-Aminoacetyl-1-(4-but-2-ynyloxy-benzenesulfonyl)-piperazine-2-carboxylic acid hydroxyamide]	27%	–
